# Target: T1, HDAC6 enzyme (Homo sapiens, UniProt Q9UBN7)
# T1 construct: transducing full length HDAC6 gene into Sf-9 insect cells; GST; purchased SignalChem; host or cells: Sf-9 insect cells
# T1 sequence (Q9UBN7 1-1215): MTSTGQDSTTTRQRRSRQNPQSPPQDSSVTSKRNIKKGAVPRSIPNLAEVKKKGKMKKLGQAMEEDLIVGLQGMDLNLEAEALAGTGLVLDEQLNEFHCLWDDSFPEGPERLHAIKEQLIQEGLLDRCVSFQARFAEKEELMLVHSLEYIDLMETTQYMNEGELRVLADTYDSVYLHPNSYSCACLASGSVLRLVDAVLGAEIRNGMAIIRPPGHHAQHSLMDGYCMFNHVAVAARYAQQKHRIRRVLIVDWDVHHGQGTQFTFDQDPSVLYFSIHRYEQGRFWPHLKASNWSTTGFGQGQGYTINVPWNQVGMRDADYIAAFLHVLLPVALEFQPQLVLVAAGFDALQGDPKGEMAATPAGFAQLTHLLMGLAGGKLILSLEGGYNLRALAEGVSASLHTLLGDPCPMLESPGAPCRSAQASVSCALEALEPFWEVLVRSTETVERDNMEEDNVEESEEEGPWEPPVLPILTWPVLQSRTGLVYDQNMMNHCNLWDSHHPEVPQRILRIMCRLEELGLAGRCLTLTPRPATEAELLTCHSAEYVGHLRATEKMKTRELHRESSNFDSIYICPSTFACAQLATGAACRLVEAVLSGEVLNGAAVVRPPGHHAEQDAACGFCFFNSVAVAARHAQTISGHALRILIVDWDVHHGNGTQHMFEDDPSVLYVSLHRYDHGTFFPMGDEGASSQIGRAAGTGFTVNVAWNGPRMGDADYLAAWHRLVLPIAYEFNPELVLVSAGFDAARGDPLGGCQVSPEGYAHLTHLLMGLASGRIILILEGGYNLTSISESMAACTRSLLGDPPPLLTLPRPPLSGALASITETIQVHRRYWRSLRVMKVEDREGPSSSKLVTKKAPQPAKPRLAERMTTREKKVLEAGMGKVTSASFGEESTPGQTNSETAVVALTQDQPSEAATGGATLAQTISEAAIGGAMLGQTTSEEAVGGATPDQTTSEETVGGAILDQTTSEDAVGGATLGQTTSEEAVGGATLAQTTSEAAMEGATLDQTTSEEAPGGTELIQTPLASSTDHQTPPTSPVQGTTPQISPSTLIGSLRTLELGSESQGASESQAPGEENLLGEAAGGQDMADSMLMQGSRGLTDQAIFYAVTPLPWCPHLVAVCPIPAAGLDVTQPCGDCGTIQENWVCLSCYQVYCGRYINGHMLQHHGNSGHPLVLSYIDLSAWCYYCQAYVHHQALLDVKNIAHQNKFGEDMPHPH
# Test: HDAC6 enzyme inhibitory activity (HDAC-Glo I/II Assay kit)
# Format: biochemical
# Conditions: 10 μM; wells without enzyme = 100% inhibition; read-out: HDAC6 inhibitory rate (%) (10 μM)
# Summary of the method: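 Full-length human HDAC6 (GST-purified, Sf-9 expressed) preincubated with compound 60 min at room temperature in Tris-HCl pH 7.5 buffer with MgCl2, KCl, NaCl, glutathione, Tween-20. HDAC-Glo I/II substrate-developer then added, 20 min room temperature, luminescence read. Inhibition relative to no-enzyme wells as 100%.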
row,SMILES,inhibition at 10 µM [%]
1,"CC(C)(C)OC(=O)N[C@@H]1CCCC[C@H]1N1Cc2ncc(-c3nnc(C(F)F)o3)cc2C1=O [Example 62, tert-butyl ((1R,2R)-2-(3-(5-(difluoromethyl)-1,3,4-oxadiazol-2-yl)-5-oxo-5,7-dihydro-6H-pyrrolo[3,4-b]pyridin-6-yl)cyclohexyl)carbamate]",99
2,"O=C(CCC(F)F)N[C@@H]1CCCC[C@H]1N1Cc2ccc(-c3nnc(C(F)F)o3)cc2C1=O [Example 64, N-((1R,2R)-2-(6-(5-(difluoromethyl)-1,3,4-oxadiazol-2-yl)-1-oxo-1,3-dihydro-2H-isoindol-2-yl)cyclohexyl)-4,4-difluorobutanamide]",100
3,"O=C(CCC(F)(F)F)N[C@@H]1CCCC[C@H]1N1Cc2ccc(-c3nnc(C(F)F)o3)cc2C1=O [Example 65, N-((1R,2R)-2-(6-(5-(difluoromethyl)-1,3,4-oxadiazol-2-yl)-1-oxo-1,3-dihydro-2H-isoindol-2-yl)cyclohexyl)-4,4,4-trifluorobutanamide]",100
4,"CCC(F)(F)C(=O)N[C@@H]1CCCC[C@H]1N1Cc2ccc(-c3nnc(C(F)F)o3)cc2C1=O [Example 67, N-((1R,2R)-2-(6-(5-(difluoromethyl)-1,3,4-oxadiazol-2-yl)-1-oxo-1,3-dihydro-2H-isoindol-2-yl)cyclohexyl)-2,2-difluorobutanamide]",100
5,"O=C1c2cc(-c3nnc(C(F)F)o3)ccc2CN1[C@@H]1CCCC[C@H]1NC(=O)C1(O)CCC1 [Example 76, N-((1R,2R)-2-(6-(5-(difluoromethyl)-1,3,4-oxadiazol-2-yl)-1-oxo-1,3-dihydro-2H-isoindol-2-yl)cyclohexyl)-1-hydroxycyclobutanecarboxamide]",101
6,"O=C1c2cc(-c3nnc(C(F)F)o3)ccc2CN1[C@@H]1CCCC[C@H]1NC(=O)C1(F)CCC1 [Example 77, N-((1R,2R)-2-(6-(5-(difluoromethyl)-1,3,4-oxadiazol-2-yl)-1-oxo-1,3-dihydro-2H-isoindol-2-yl)cyclohexyl)-1-fluorocyclobutanecarboxamide]",100
7,"N#CC1(C(=O)N[C@@H]2CCCC[C@H]2N2Cc3ccc(-c4nnc(C(F)F)o4)cc3C2=O)CCC1 [Example 78, 1-cyano-N-((1R,2R)-2-(6-(5-(difluoromethyl)-1,3,4-oxadiazol-2-yl)-1-oxo-1,3-dihydro-2H-isoindol-2-yl)cyclohexyl)cyclobutanecarboxamide]",100
8,"O=C1c2cc(-c3nnc(C(F)F)o3)ccc2CN1[C@@H]1CCCC[C@H]1NC(=O)C12CC(C(F)(F)F)(C1)C2 [Example 80, N-((1R,2R)-2-(6-(5-(difluoromethyl)-1,3,4-oxadiazol-2-yl)-1-oxo-1,3-dihydro-2H-isoindol-2-yl)cyclohexyl)-3-(trifluoromethyl)bicyclo[1.1.1]pentane-1-carboxamide]",101
9,"CC(C)(C#N)C(=O)N[C@@H]1CCCC[C@H]1N1Cc2ccc(-c3nnc(C(F)F)o3)cc2C1=O [Example 82, 2-cyano-N-((1R,2R)-2-(6-(5-(difluoromethyl)-1,3,4-oxadiazol-2-yl)-1-oxo-1,3-dihydro-2H-isoindol-2-yl)cyclohexyl)-2-methylpropanamide]",100
10,"CC(C)(C(=O)N[C@@H]1CCCC[C@H]1N1Cc2ccc(-c3nnc(C(F)F)o3)cc2C1=O)C(F)(F)F [Example 84, N-((1R,2R)-2-(6-(5-(difluoromethyl)-1,3,4-oxadiazol-2-yl)-1-oxo-1,3-dihydro-2H-isoindol-2-yl)cyclohexyl)-3,3,3-trifluoro-2,2-dimethylpropanamide]",100

# Second part, the compound after the results:
row,inhibition at 10 µM [%],SMILES
1,99,"O=C(CC1CC1)N[C@@H]1CCCC[C@H]1N1Cc2ccc(-c3nnc(C(F)F)o3)cc2C1=O [Example 63, 2-cyclopropyl-N-((1R,2R)-2-(6-(5-(difluoromethyl)-1,3,4-oxadiazol-2-yl)-1-oxo-1,3-dihydro-2H-isoindol-2-yl)cyclohexyl)acetamide]"
2,101,"CC(F)C(=O)N[C@@H]1CCCC[C@H]1N1Cc2ccc(-c3nnc(C(F)F)o3)cc2C1=O (stereo partly drawn) [Example 66, N-((1R,2R)-2-(6-(5-(difluoromethyl)-1,3,4-oxadiazol-2-yl)-1-oxo-1,3-dihydro-2H-isoindol-2-yl)cyclohexyl)-2-fluoropropanamide]"
3,101,"COC1(C(=O)N[C@@H]2CCCC[C@H]2N2Cc3ccc(-c4nnc(C(F)F)o4)cc3C2=O)CC1 [Example 68, N-((1R,2R)-2-(6-(5-(difluoromethyl)-1,3,4-oxadiazol-2-yl)-1-oxo-1,3-dihydro-2H-isoindol-2-yl)cyclohexyl)-1-methoxycyclopropanecarboxamide]"
4,100,"O=C(N[C@@H]1CCCC[C@H]1N1Cc2ccc(-c3nnc(C(F)F)o3)cc2C1=O)C1CC1F (stereo partly drawn) [Example 70, N-((1R,2R)-2-(6-(5-(difluoromethyl)-1,3,4-oxadiazol-2-yl)-1-oxo-1,3-dihydro-2H-isoindol-2-yl)cyclohexyl)-2-fluorocyclopropanecarboxamide]"
5,97,"O=C(N[C@@H]1CCCC[C@H]1N1Cc2ccc(-c3nnc(C(F)F)o3)cc2C1=O)C1CC1C(F)F (stereo partly drawn) [Example 71, 2-(difluoromethyl)-N-((1R,2R)-2-(6-(5-(difluoromethyl)-1,3,4-oxadiazol-2-yl)-1-oxo-1,3-dihydro-2H-isoindol-2-yl)cyclohexyl)cyclopropanecarboxamide (optical isomer)]"
6,97,"O=C(N[C@@H]1CCCC[C@H]1N1Cc2ccc(-c3nnc(C(F)F)o3)cc2C1=O)C1CC12CCC2 (stereo partly drawn) [Example 72, N-((1R,2R)-2-(6-(5-(difluoromethyl)-1,3,4-oxadiazol-2-yl)-1-oxo-1,3-dihydro-2H-isoindol-2-yl)cyclohexyl)spiro[2.3]hexane-1-carboxamide (optical isomer)]"
7,100,"CC1CC1C(=O)N[C@@H]1CCCC[C@H]1N1Cc2ccc(-c3nnc(C(F)F)o3)cc2C1=O (stereo partly drawn) [Example 73, N-((1R,2R)-2-(6-(5-(difluoromethyl)-1,3,4-oxadiazol-2-yl)-1-oxo-1,3-dihydro-2H-isoindol-2-yl)cyclohexyl)-2-methylcyclopropanecarboxamide]"
8,102,"O=C(N[C@@H]1CCCC[C@H]1N1Cc2ccc(-c3nnc(C(F)F)o3)cc2C1=O)C1CC1(F)F (stereo partly drawn) [Example 74, N-((1R,2R)-2-(6-(5-(difluoromethyl)-1,3,4-oxadiazol-2-yl)-1-oxo-1,3-dihydro-2H-isoindol-2-yl)cyclohexyl)-2,2-difluorocyclopropanecarboxamide (optical isomer)]"
9,101,"CC1(C)CC1C(=O)N[C@@H]1CCCC[C@H]1N1Cc2ccc(-c3nnc(C(F)F)o3)cc2C1=O (stereo partly drawn) [Example 75, N-((1R,2R)-2-(6-(5-(difluoromethyl)-1,3,4-oxadiazol-2-yl)-1-oxo-1,3-dihydro-2H-isoindol-2-yl)cyclohexyl)-2,2-dimethylcyclopropanecarboxamide]"
10,97,"O=C(N[C@@H]1CCCC[C@H]1N1Cc2ccc(-c3nnc(C(F)F)o3)cc2C1=O)C1CC2(CCC2)C1 [Example 79, N-((1R,2R)-2-(6-(5-(difluoromethyl)-1,3,4-oxadiazol-2-yl)-1-oxo-1,3-dihydro-2H-isoindol-2-yl)cyclohexyl)spiro[3.3]heptane-2-carboxamide]"
11,101,"CC(C)(O)C(=O)N[C@@H]1CCCC[C@H]1N1Cc2ccc(-c3nnc(C(F)F)o3)cc2C1=O [Example 81, N-((1R,2R)-2-(6-(5-(difluoromethyl)-1,3,4-oxadiazol-2-yl)-1-oxo-1,3-dihydro-2H-isoindol-2-yl)cyclohexyl)-2-hydroxy-2-methylpropanamide]"
12,102,"CC(C)(O)CC(=O)N[C@@H]1CCCC[C@H]1N1Cc2ccc(-c3nnc(C(F)F)o3)cc2C1=O [Example 83, N-((1R,2R)-2-(6-(5-(difluoromethyl)-1,3,4-oxadiazol-2-yl)-1-oxo-1,3-dihydro-2H-isoindol-2-yl)cyclohexyl)-3-hydroxy-3-methylbutanamide]"
